The test system of test [1] is PC-3. The test is described as follows: Cytotoxicity against human PC3 cells assessed as reduction in cell viability up to 3 uM measured after 24 hrs by MTT assay. The test is classed as functional, cell-based.
The subject of test [2] is NCI-H460. The test is described as follows: Cytotoxicity against human NCI-H460 cells assessed as reduction in cell viability up to 3 uM measured after 24 hrs by MTT assay. The test is classed as functional, cell-based.
Test [3] has as its system HeLa. The test is described as follows: Cytotoxicity against human HeLa cells assessed as reduction in cell viability up to 3 uM measured after 24 hrs by MTT assay. The test is classed as functional, cell-based. In general terms: Tetrazolium assays rely on reduction of a dye to a coloured formazan, in cell work by metabolically active cells.
Test [4] concerns LN-229. The test is described as follows: Cytotoxicity against human LN229 cells assessed as reduction in cell viability up to 3 uM measured after 24 hrs by MTT assay. The test is classed as functional, cell-based.
Test [5] deals with T1, Heat shock protein 75 kDa, mitochondrial (Homo sapiens) (UniProt Q12931).
T1 sequence (whole entry): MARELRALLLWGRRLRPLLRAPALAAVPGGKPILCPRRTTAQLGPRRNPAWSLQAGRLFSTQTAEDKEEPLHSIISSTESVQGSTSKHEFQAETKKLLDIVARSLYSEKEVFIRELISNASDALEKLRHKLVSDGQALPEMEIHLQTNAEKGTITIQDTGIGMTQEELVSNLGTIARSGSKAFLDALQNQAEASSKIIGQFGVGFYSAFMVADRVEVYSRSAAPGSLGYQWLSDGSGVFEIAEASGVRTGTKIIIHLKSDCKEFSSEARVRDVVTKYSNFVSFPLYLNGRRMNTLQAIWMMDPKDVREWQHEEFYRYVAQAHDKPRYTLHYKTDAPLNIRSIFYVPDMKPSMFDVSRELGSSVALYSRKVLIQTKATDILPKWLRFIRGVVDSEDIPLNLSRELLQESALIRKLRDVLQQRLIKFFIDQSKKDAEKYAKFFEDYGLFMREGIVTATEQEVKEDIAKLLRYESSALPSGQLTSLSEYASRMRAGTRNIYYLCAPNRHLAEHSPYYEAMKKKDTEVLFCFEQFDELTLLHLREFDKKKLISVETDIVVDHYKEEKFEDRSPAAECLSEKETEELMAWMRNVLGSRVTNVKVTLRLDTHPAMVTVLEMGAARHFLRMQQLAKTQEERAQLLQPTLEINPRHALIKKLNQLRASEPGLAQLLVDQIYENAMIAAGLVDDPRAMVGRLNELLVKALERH
The test is described as follows: Inhibition of recombinant wild-type human TRAP1 ATPase activity expressed in Escherichia coli BL21 (DE3) preincubated for 0.5 hrs followed by ATP addition and measured after 3 hrs by PiColorLock Gold reagent based colorimetric assay.

The target in test [6] is T1, Heat shock protein 75 kDa, mitochondrial (Homo sapiens). The test is described as follows: Inhibition of recombinant wild-type human TRAP1 chaperone activity expressed in Escherichia coli BL21 (DE3) at 5 uM preincubated for 30 mins followed by denatured luciferase and ATP addition by luciferase refolding assay.
The target is the same in test [7]. The test is described as follows: Binding affinity to recombinant wild-type human TRAP1 ATP site expressed in Escherichia coli BL21 (DE3) assessed as induction of conformational change by measuring closed state population of TRAP1 at 10 uM preincubated for 30 mins followed by ATP addition and measured after 30 mins by TEM analysis (reference value: 52.1 +/- 0.6 %).

For test [8] the target is unchanged. The test is described as follows: Binding affinity to recombinant wild-type human TRAP1 ATP site expressed in Escherichia coli BL21 (DE3) assessed as induction of conformational change by measuring closed state population of TRAP1 at 10 uM measured after 30 mins in absence of ATP by TEM analysis (reference value: 52.1 +/- 0.6 %).
For test [9], the species on record is Homo sapiens. The test is described as follows: Inhibition of recombinant full-length human TRAP1 W383/W4F mutant expressed in Escherichia coli BL21 (DE3) assessed as intrinsic fluorescence quenching of tryptophan residues at 10 uM measured after 1 hr by fluorescence spectrophotometric method.
The species named for test [10] is Homo sapiens. The test is described as follows: Inhibition of recombinant full-length human TRAP1 W585/W4F mutant expressed in Escherichia coli BL21 (DE3) assessed as intrinsic fluorescence quenching of tryptophan residues at 10 uM measured after 1 hr by fluorescence spectrophotometric method.
For test [11], the target named is T1, Heat shock protein 75 kDa, mitochondrial (Homo sapiens). The test is described as follows: Inhibition of TRAP1 in human PC3 cells assessed as increase in reactive oxygen species generation at 10 uM measured after 2 hrs by Mito-SOX probe based flow cytometry. The class given is cell-based. Conditions: PC-3.
Test [12] has the same target. The test is described as follows: Inhibition of TRAP1 in human PC3 cells assessed as loss of mitochondrial membrane potential at 10 uM measured after 2 hrs by TMRM dye based flow cytometry. The class given is cell-based. As to conditions: PC-3. In general terms: A flow cytometer gives signals particle by particle.
The target is the same in test [13]. The test is described as follows: Inhibition of TRAP1 in human PC3 cells assessed as increase in AMPK phosphorylation at 5 uM measured after 2 to 12 hrs by Western blot analysis. As to conditions: PC-3. The test is classed as cell-based.
Test [14] shares this target. The test is described as follows: Inhibition of TRAP1 in human PC3 cells assessed as reduction in SIRT3 expression at 5 uM measured after 2 to 12 hrs by Western blot analysis. Conditions: PC-3. The test is classed as cell-based. (In general: In western blotting, separated proteins are transferred to a membrane and probed.)
Test [15] shares this target. The test is described as follows: Inhibition of TRAP1 in human PC3 cells assessed as reduction in SDHB expression at 5 uM measured after 2 to 12 hrs by Western blot analysis. As to conditions: PC-3. The class given is cell-based.
The target is the same in test [16]. The test is described as follows: Inhibition of TRAP1 in human PC3 cells assessed as increase in CHOP expression at 5 uM measured after 2 to 12 hrs by Western blot analysis. The test is classed as cell-based. Conditions: PC-3.
For test [17], the system named is NCI-H460. The test is described as follows: Antitumor activity against human NCI-H460 cells xenografted in nude mouse assessed as tumor growth inhibition at 5 mg/kg, ip administered daily. The test is classed as functional, organism-based.
Test [18] relates to Mus musculus. The test is described as follows: In vivo inhibition of TRAP1 in nude mouse xenografted with human NCI-H460 cells assessed as increase in AMPK phosphorylation at 5 mg/kg, ip administered daily by Western blot analysis. The test is classed as functional, organism-based.
Test [19] has as its system Mus musculus. The test is described as follows: In vivo inhibition of TRAP1 in nude mouse xenografted with human NCI-H460 cells assessed as increase in CHOP expression at 5 mg/kg, ip administered daily by Western blot analysis. The test is classed as functional, organism-based.
Test [20] has as its system Mus musculus. The test is described as follows: In vivo inhibition of TRAP1 in nude mouse xenografted with human NCI-H460 cells assessed as increase in SDHB degradation at 5 mg/kg, ip administered daily by Western blot analysis. The class given is functional, organism-based.
For test [21], the system named is Mus musculus. The test is described as follows: In vivo inhibition of TRAP1 in nude mouse xenografted with human NCI-H460 cells assessed as increase in SIRT3 degradation at 5 mg/kg, ip administered daily by Western blot analysis. The class given is functional, organism-based.
The test system of test [22] is NCI-H460. The test is described as follows: Antitumor activity against human NCI-H460 cells xenografted in nude mouse assessed as reduction in tumor cell proliferation at 5 mg/kg, ip administered daily by Ki67 staining based immunohistochemistry analysis. The test is classed as functional, organism-based.
The subject of test [23] is NCI-H460. The test is described as follows: Antitumor activity against human NCI-H460 cells xenografted in nude mouse assessed as induction of tumor cell death by measuring increase in cleaved caspase-3 expression at 5 mg/kg, ip administered daily by Western blot analysis. The class given is functional, organism-based.
Test [24] concerns NCI-H460. The test is described as follows: Antitumor activity against human NCI-H460 cells xenografted in nude mouse assessed as induction of tumor cell death by measuring increase in cleaved caspase-9 expression at 5 mg/kg, ip administered daily by Western blot analysis. The test is classed as functional, organism-based.

The source made the active and inactive calls. The calls are words filed in the database; no cut-off is given here.

On to `CC(C)c1cc(-c2n[nH]c(=O)n2-c2ccc3c(ccn3C)c2)c(O)cc1O`, for which the result in test [1], in test [2], in [3] and in test [4] was Active.

As for `Nc1ncnc2c1nc(Sc1cc3c(cc1I)OCO3)n2CCC[P+](c1ccccc1)(c1ccccc1)c1ccccc1`, the inhibition entry in test [5] was “Active”.

Consider `CC(C)NCCCn1c(Sc2cc3c(cc2I)OCO3)nc2c(N)ncnc21`, for which the inhibition result in test [5] and in [6] was “Active” in each case. Besides, the Activity in test [7] was 26.5%; in [8], 28.3%. The result in [1], in test [2], in [3] and in test [4] was Active.

Consider `CO[C@H]1/C=C\C=C(/C)C(=O)NC2=CC(=O)C(NCCCCCC[P+](c3ccccc3)(c3ccccc3)c3ccccc3)=C(C[C@@H](C)C[C@H](OC)[C@H](O)[C@@H](C)/C=C(\C)[C@@H]1OC(N)=O)C2=O`, for which the outcome in test [1], in test [2] and in [4] was Active.

On to `Nc1ncnc2c1nc(Sc1cc3c(cc1I)OCO3)n2CCCCCCCC[P+](c1ccccc1)(c1ccccc1)c1ccccc1`, for which the inhibition entry in [5] was “Active”.

For the molecule `Nc1ncnc2c1nc(Sc1cc3c(cc1I)OCO3)n2CCCCCC[P+](c1ccccc1)(c1ccccc1)c1ccccc1`, the inhibition result in [5], in test [6], in [9], in [10], in test [11] and in [12] was “Active” each time. Also, the Activity in [7] is 41.3%; in test [8] it was 28.2%. For the same molecule, the inhibition result in test [13], in [14], in test [15], in test [16], in test [18] and in test [19] was “inactive” throughout. Besides, the inhibition entry in test [20] and in [21] was “inactive” in each case. For the same molecule, the outcome in test [1], in [2], in test [3] and in [4] was Active. The TGI entry in test [17] was “inactive”. The result in [22], in test [23] and in test [24] was inactive.

`Nc1ncnc2c1nc(Sc1cc3c(cc1I)OCO3)n2CCCCCCCCCCCC[P+](c1ccccc1)(c1ccccc1)c1ccccc1`: the inhibition result in test [5] was “Active”.

The record behind these values is ChEMBL document CHEMBL4602687, “Dual Binding to Orthosteric and Allosteric Sites Enhances the Anticancer Activity of a TRAP1-Targeting Drug” (J Med Chem, 2020).
